Test systems include SK-MEL-2; LOX IMVI; HOP-62; COLO 205; NCI-H522; 786-0; SF-268; SK-OV-3; CCRF-CEM; HCT-116; U-251; RXF 393; SF-295; K562; OVCAR-5; A498.
Common to all, as to test: inhibition of tumour cell growth, NCI panel, 48 h

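Tested at 5 concentrations; 48 h exposure; 96-well plates; endpoints linearly interpolated, else capped at highest concentration. Here, GI50 denotes the concentration required for 50% inhibition of growth.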 Activity calls are given as the source filed them. No stated cut-off is given here; in the data, active = GI50 up to about 1.1 µM and inactive = higher.

Regarding `Cc1nc2c(n1CCO)C(=O)c1ccccc1C2=O`, the GI50 is 18.4 µM (inactive) in the experiment on SK-MEL-2; 23.4 µM (inactive) with LOX IMVI; 28.6 µM (inactive) in the experiment with HOP-62; 18.9 µM (inactive) in the experiment on COLO 205; 14.5 µM (inactive) with NCI-H522; 46.9 µM (inactive) in the experiment with 786-0. Moreover, the GI50 with SF-268 was 32.5 µM (inactive); in the experiment with SK-OV-3, > 100 µM (inactive); in the experiment with CCRF-CEM it was 27.4 µM (inactive); in the experiment on HCT-116, 18.9 µM (inactive); in the experiment on U-251, 26.5 µM (inactive); in the experiment on RXF 393, 33.7 µM (inactive). Further, the GI50 with SF-295 was 48.4 µM (inactive); with K562, 25.6 µM (inactive).

Regarding `COc1cc2c(cc1OC)C(C(CO)CO)N(CC(O)CCl)CC2` (stereo not drawn), the GI50 in the experiment on SK-MEL-2, in the experiment with OVCAR-5, in the experiment on LOX IMVI, in the experiment on HOP-62, in the experiment on COLO 205 and in the experiment with NCI-H522 was > 100 µM (inactive) in each case. For the same compound, the GI50 with 786-0, in the experiment with SF-268, with SK-OV-3, in the experiment with A498, with CCRF-CEM and with U-251 was > 100 µM (inactive) throughout. Also, the GI50 with SF-295 and in the experiment with K562 was > 100 µM (inactive) each time.

As for `Cc1[nH]c2ccccc2c1C(=O)CC1(O)C(=O)Nc2ccccc21` (stereo not drawn), the GI50 with SK-MEL-2 was 87.7 µM (inactive); in the experiment on OVCAR-5, > 100 µM (inactive); in the experiment with LOX IMVI, > 100 µM (inactive); in the experiment on HOP-62 it was > 100 µM (inactive); in the experiment with COLO 205 it was > 100 µM (inactive); in the experiment on 786-0, > 100 µM (inactive). The GI50 with SF-268, in the experiment on SK-OV-3, in the experiment on A498, in the experiment with CCRF-CEM, in the experiment with HCT-116 and in the experiment with U-251 was > 100 µM (inactive) in each case. Also, the GI50 in the experiment on RXF 393, in the experiment on SF-295 and in the experiment on K562 was > 100 µM (inactive) each time.

As to `N#C/C(=C1\N=NC(N)=C(c2ccc(Cl)cc2)C1=O)c1ccc(Cl)cc1`, the GI50 in the experiment with OVCAR-5, in the experiment with LOX IMVI, with HOP-62, in the experiment on COLO 205, in the experiment with NCI-H522 and with 786-0 was > 100 µM (inactive) throughout. Besides, the GI50 with SF-268, with SK-OV-3, with A498, in the experiment on CCRF-CEM, in the experiment with HCT-116 and with U-251 was > 100 µM (inactive) throughout. Further, the GI50 in the experiment on RXF 393, in the experiment on SF-295 and in the experiment on K562 was > 100 µM (inactive) in each case.

With `COc1ccc(C(C#N)NNC(=O)c2ccccc2O)cc1OC` (stereo not drawn), the GI50 was 0.667 µM (active) in the experiment with SK-MEL-2; 15.1 µM (inactive) in the experiment with OVCAR-5; 0.735 µM (active) in the experiment with LOX IMVI; 13.2 µM (inactive) in the experiment with HOP-62; 35.6 µM (inactive) in the experiment with COLO 205; 3.28 µM (inactive) in the experiment with NCI-H522. Also, the GI50 was 1.24 µM (inactive) with 786-0; 0.468 µM (active) in the experiment with SF-268; 0.889 µM (active) with SK-OV-3; 1.21 µM (inactive) in the experiment with CCRF-CEM; 0.401 µM (active) in the experiment with HCT-116; 0.45 µM (active) in the experiment with U-251. Moreover, the GI50 in the experiment with RXF 393 was 0.902 µM (active); in the experiment with SF-295, 1.24 µM (inactive); in the experiment on K562 it was 0.356 µM (active).

As for `CCOC(=O)C1=C(C)CC2C(=O)OC(=O)C2C1(C)C` (stereo not drawn), the GI50 in the experiment with SK-MEL-2, in the experiment with OVCAR-5, with COLO 205, in the experiment with NCI-H522, in the experiment on 786-0 and in the experiment on SF-268 was > 100 µM (inactive) each time. The GI50 with SK-OV-3, in the experiment on CCRF-CEM, in the experiment with U-251, with RXF 393, in the experiment on SF-295 and in the experiment on K562 was > 100 µM (inactive) in each case.

Regarding `Nc1ccc(C(=O)CC2(O)C(=O)Nc3ccccc32)cc1` (stereo not drawn), the GI50 in the experiment on SK-MEL-2 was > 100 µM (inactive); in the experiment on OVCAR-5, > 100 µM (inactive); in the experiment with LOX IMVI, > 100 µM (inactive); in the experiment on COLO 205 it was > 100 µM (inactive); in the experiment with NCI-H522, 29.7 µM (inactive); in the experiment with 786-0, > 100 µM (inactive). The GI50 with SF-268, in the experiment on SK-OV-3, with A498, in the experiment with HCT-116, with RXF 393 and with SF-295 was > 100 µM (inactive) each time. Further, the GI50 in the experiment on K562 was > 100 µM (inactive).

On to `CSc1nc(Cl)c(Br)c(Sc2nc(N)nc3nc[nH]c23)n1`, for which the GI50 in the experiment with SK-MEL-2 was 4.78 µM (inactive); in the experiment with OVCAR-5 it was 11.8 µM (inactive); in the experiment on HOP-62, 2 µM (inactive); with COLO 205, 15.7 µM (inactive); with NCI-H522, 1.63 µM (inactive); with 786-0, 3.27 µM (inactive). Also, the GI50 in the experiment with SF-268 is 3.44 µM (inactive); in the experiment with CCRF-CEM it was 2.77 µM (inactive); in the experiment on HCT-116, 2.84 µM (inactive); in the experiment with U-251 it was 4.48 µM (inactive); with SF-295, 4.72 µM (inactive); in the experiment on K562, 3.34 µM (inactive).

On to `C[Si](C)(C)c1ccc(-c2sc(-c3ccc([Si](C)(C)C)s3)c3c2C[Si]2(C3)Cc3c(-c4ccc([Si](C)(C)C)s4)sc(-c4ccc([Si](C)(C)C)s4)c3C2)s1`, for which the GI50 in the experiment with OVCAR-5, with LOX IMVI, in the experiment with HOP-62, in the experiment on COLO 205, with NCI-H522 and with 786-0 was > 100 µM (inactive) throughout. Further, the GI50 in the experiment with SF-268, with SK-OV-3, in the experiment on CCRF-CEM, in the experiment with HCT-116, in the experiment with U-251 and in the experiment with RXF 393 was > 100 µM (inactive) each time. Further, the GI50 in the experiment with SF-295 and in the experiment on K562 was > 100 µM (inactive) in each case.

On to `CCOC(=O)N1CCN(P(=O)(Nc2ccc3[nH]c(NC(=O)OC)nc3c2)Oc2ccccc2)CC1` (stereo not drawn), for which the GI50 with SK-MEL-2 was > 100 µM (inactive); in the experiment with OVCAR-5, > 100 µM (inactive); in the experiment on LOX IMVI, > 100 µM (inactive); in the experiment on COLO 205 it was > 100 µM (inactive); in the experiment with NCI-H522 it was 37.5 µM (inactive); in the experiment with 786-0 it was > 100 µM (inactive). In addition, the GI50 is > 100 µM (inactive) in the experiment on SF-268; > 100 µM (inactive) with SK-OV-3; > 100 µM (inactive) in the experiment with A498; 86.1 µM (inactive) in the experiment on CCRF-CEM; > 100 µM (inactive) with HCT-116; > 100 µM (inactive) in the experiment with U-251. For the same compound, the GI50 in the experiment on RXF 393 is > 100 µM (inactive); with K562, 35 µM (inactive).

(Values after ChEMBL document CHEMBL1201862, “PubChem BioAssay data set” (2004).)
